These results are taken from paper PMC9636034 (Current Research in Food Science, 2022).

The term IC50 denotes the midpoint of a concentration-inhibition curve. Low values mean greater potency, high ones weaker potency.

This assay addresses α-glucosidase from yeast (Saccharomyces cerevisiae, UniProt P53341). Briefly: Inhibition assay against α-glucosidase from yeast. In kind it is biochemical.

Some results are limits rather than exact numbers.

α-glucosidase from yeast, sequence (P53341 whole entry): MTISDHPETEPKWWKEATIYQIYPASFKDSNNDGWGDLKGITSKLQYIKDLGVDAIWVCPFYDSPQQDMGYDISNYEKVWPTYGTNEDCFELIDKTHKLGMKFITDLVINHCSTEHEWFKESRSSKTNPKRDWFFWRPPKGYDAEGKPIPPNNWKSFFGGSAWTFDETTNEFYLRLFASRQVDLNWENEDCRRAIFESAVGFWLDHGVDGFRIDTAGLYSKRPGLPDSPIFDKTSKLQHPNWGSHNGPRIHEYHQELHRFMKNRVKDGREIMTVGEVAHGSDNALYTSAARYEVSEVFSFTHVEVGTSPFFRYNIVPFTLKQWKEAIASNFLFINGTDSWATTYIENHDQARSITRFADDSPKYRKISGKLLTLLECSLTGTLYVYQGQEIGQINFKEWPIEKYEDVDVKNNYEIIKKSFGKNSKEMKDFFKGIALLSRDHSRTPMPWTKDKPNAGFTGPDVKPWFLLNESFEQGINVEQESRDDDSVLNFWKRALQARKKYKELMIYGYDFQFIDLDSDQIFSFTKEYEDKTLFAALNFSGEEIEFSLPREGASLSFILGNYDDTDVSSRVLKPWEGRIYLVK

With `CC(=O)[C@@H]1COC(=O)[C@H]1C` [Compound 2, (3S, 4S)-4-acetyl-3-methyldihydrofuran-2 (3H)-one], the half-maximal inhibitory concentration (IC50) was found to be 193 ± 13.1 µM.

`CC1=C(C)C(C)(O)OC1=O` (centres unmarked) [Compound 3, 2-methyl-2-hydroxy-3,4-dimethyl-5-oxo-2,5-dihydrofuran] showed a half-inhibitory concentration (IC50) above 250 µM.
